# Reference: paper PMC6753678, “Fueling Open Innovation for Malaria Transmission-Blocking Drugs: Hundreds of Molecules Targeting Early Parasite Mosquito Stages” (Frontiers in Microbiology, 2019)
# Read-outs that look alike come from different tables or passages of the source.
# Legend:
# [1] = tested on: P. falciparum female gametocytes; assay: P. falciparum female gametogenesis assay (Pf FGAA); settings: 1: YES; 0: NO
# [2] = tested on: HepG2 cells; assay: HepG2 cytotoxicity assay; settings: for Unified cytotox: HepG2 values of the three screens unified; for IC50: read-out: HepG2 cytotoxicity assay IC50, dose response confirmation
# Procedure, shortened: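 HepG2 cells, 2,500 per well in MEM with 10% FBS and 1% NEAA, exposed to compounds for 48 h at 37°C, 5% CO2. Viability read by fluorescence; percent inhibition relative to 50 μM doxorubicin and DMSO controls.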
# [3] = tested on: P. berghei ookinete development; settings: for Is compound selective in assay? Pb ODA active?: 1: YES, 0: NO; for % inhibition, Replicate A / % inhibition, Replicate B: primary screen at 1 μM
# [4] = tested on: P. falciparum female gametocytes; parameters: method as in Miguel-Blanco et al 2017; settings: ref Miguel-Blanco et al 2017, read-out: Pf FGAA IC50, cited from earlier work
# [5] = tested on: HepG2 cells; settings: ref Miguel-Blanco et al 2017, cited from earlier work
# [6] = tested on: 3D7-strain P. falciparum asexual parasites; assay: P. falciparum asexual growth inhibition assay (Pf GIA); assay type: cell-based, Plasmodium falciparum; settings: dose response confirmation; read-out: Pf asexual growth inhibition assays IC50
# Procedure, shortened: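 LDH readout: absorbance at 650 nm after 10 min at room temperature with lactate/APAD/NBT/diaphorase mix on thawed plates. Cultures (0.25% parasitemia, 2% hematocrit) were treated 72 h at 37°C in low-oxygen gas. Inhibition was normalised to 50 μM chloroquine and DMSO; n=3 biological replicates.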
# [7] = read-out: Pb ODA IC50, this manuscript
# [8] = read-out: Pb Ookinete development assay IC50, dose response confirmation
# [9] = HepG2 value reported with Pf FGAA screen
SMILES,Is compound selective in assay? Pf FGAA active? [1],"HepG2 cytoxicity (Pb ODA, this manuscript) [2] [µM]",Unified cytotox [2] [µM],IC50 [2] [µM],Is compound selective in assay? Pb ODA active? [3],"% inhibition, Replicate A [3] [%]","% inhibition, Replicate B [3] [%]","IC50 [3, 7] [nM]","IC50 [3, 8] [nM]",IC50 [4] [nM],HepG2 cytoxicity (Pf FGAA screen) ([5]; HepG2) [µM],IC50 [6] [nM],IC50 ([4]; TCAMS library screen) [nM],"HepG2 cytoxicity (Pf FGAA screen) [5, 9] [µM]"
CC(C)(CN)c1cc(-c2ccc(Cl)c(O)c2)c(-c2ccncc2)o1.Cl [TCMDC-141334],1 (1: YES),20.65,15.32,20.7,1 (1: YES),59.21,49.94,1390,1390,420,9.98,1620,,
O=C(Nc1nc(-c2ccccn2)cs1)c1ccc(S(=O)(=O)N2CCc3ccccc32)cc1 [TCMDC-125432],1 (1: YES),4.22,16.72,4.22,0 (0: NO),17.85,54.79,2400,2400,1070,29.22,3850,,
Cc1ccc(S(=O)(=O)N(CCCNCc2cccc(O)c2)c2ccccc2)cc1 [TCMDC-138022],1 (1: YES),34.67,39.67,34.7,1 (1: YES),53.17,87.34,1480,1480,1140,44.67,124,,
Cc1cc(Nc2ncc(C#N)c(Nc3ccccc3C(N)=O)n2)ccc1N1CCN(C)CC1.Cl [TCMDC-134115],0 (0: NO),3.98,2.19,3.98,1 (1: YES),100.09,101.70,21.4,21,1670,0.40,7,,
CCCC(N)C(=O)NC1CCN(c2c(F)c(N)c3c(=O)c(C(=O)O)cn4c3c2Oc2ccccc2-4)C1.Cl (stereo not shown) [TCMDC-125701],0 (0: NO),3.63,2.62,3.63,0 (0: NO),70.26,78.60,,900,1140,1.61,56,,
Cc1cc(F)ccc1-c1nc(NCCCNCCc2ccccc2)nc2c1ccc(=O)n2-c1c(F)cccc1F.O=C(O)C(F)(F)F [TCMDC-141804],0 (0: NO),11.48,12.04,11.5,1 (1: YES),63.85,85.47,720,725,3610,12.59,21,,
O=C(Nc1ccc(Cl)cc1)c1cc(Cl)cc2nc(C(F)(F)F)[nH]c12 [TCMDC-141586],0 (0: NO),2.04,2.43,2.04,0 (0: NO),65.74,42.68,4370,4360,1700,2.82,1100,,
COc1ccc2nc3cc(Cl)ccc3c(N)c2c1.Cl [TCMDC-125835],0 (0: NO),6.17,3.87,6.17,0 (0: NO),74.62,77.49,6320,6320,670,1.57,29,,
CC(C)(C)CNCC(C)(C)c1nc(-c2ccc(Cl)c(O)c2)c(-c2ccncc2)[nH]1.Cl [TCMDC-140549],1 (1: YES),12.02,11.83,12,0 (0: NO),58.06,49.80,1350,1350,1010,11.63,817,,
Cc1ccc(-n2c(Sc3ncnc4sccc34)nnc2N2CCCC2)cc1 [TCMDC-125247],1 (1: YES),74.13,81.63,74.1,1 (1: YES),123.83,128.92,220,222,490,89.13,275,,
Oc1c(C(Nc2nc3ccccc3s2)c2ccccc2)ccc2cccnc12 (stereo not shown) [TCMDC-125565],0 (0: NO),2.34,2.34,2.34,0 (0: NO),27.85,50.32,4000,4000,3030,,2390,,
Cc1ccnc(NC(c2cccc(Cl)c2Cl)c2ccc3cccnc3c2O)c1 (stereo not shown) [TCMDC-123997],1 (1: YES),2.88,24.29,2.88,0 (0: NO),48.46,53.18,3500,3500,1910,45.69,1990,,
c1ccn2c(Sc3ncnc4sccc34)ncc2c1 [TCMDC-124602],1 (1: YES),,,,,,,,,,,,240,>100
CCOc1ccc(-n2nc3c(Cl)nnc(-c4ccccc4)c3c2-c2ccccc2)cc1 [TCMDC-123899],1 (1: YES),,,,,,,,,,,,940,>100
CC(C)N1CCN(C(CN2CCN(CCCOc3ccc(-c4ccccc4)cc3)CC2)c2ccc(F)cc2)CC1.Cl (stereo not shown) [TCMDC-135497],0 (0: NO),,,,,,,,,,,,1420,2.29
CCCc1cc(=O)[nH]c(-n2nc(C)cc2NC(=O)CC(c2ccccc2)c2ccccc2)n1 [TCMDC-124940],1 (1: YES),,,,,,,,,,,,1300,>100
CCCOc1c(CCNCCCCNCCc2ccc3ccccc3c2OCCC)ccc2ccccc12.CS(=O)(=O)O [TCMDC-137950],0 (0: NO),,,,,,,,,,,,640,1.72
Cc1ccc(Cn2nc(N3CCNCC3)ccc2=O)cc1NC(=O)Nc1ccc(-c2ccccc2)cc1.O=C(O)C(F)(F)F [TCMDC-132580],0 (0: NO),,,,,,,,,,,,1940,7.42
FC(F)(F)c1cnc(Sc2nnc(-c3ccncc3)o2)c(Cl)c1 [TCMDC-123767],1 (1: YES),,,,,,,,,,,,160,>100
COc1c(CNCCCCCCNCc2cc(Cl)c3ccccc3c2OC)cc(Cl)c2ccccc12.CS(=O)(=O)O [TCMDC-137958],0 (0: NO),,,,,,,,,,,,1180,4.62
CCn1c(-c2nonc2N)nc2c(-c3cccc(NC(=O)Nc4ccc(C(F)(F)F)cc4)c3)ncc(OCCCN)c21.O=C(O)C(F)(F)F [TCMDC-136179],0 (0: NO),,,,,,,,,,,,910,5.62
CCc1c(CCNCCCCCCNCCc2ccc3c(c2C)OCO3)ccc2c1OCO2.Cl [TCMDC-132093],0 (0: NO),,,,,,,,,,,,1020,3.89
CCCN(CC1CC1)c1ncc(-c2cccc(CNCCC3CCCN3C)c2)cn1 (stereo not shown) [TCMDC-133142],0 (0: NO),,,,,,,,,,,,2180,3.09
